# Measurements as given in ChEMBL document CHEMBL3588836, “Development of Quinoline-2,4(1H,3H)-diones as Potent and Selective Ligands of the Cannabinoid Type 2 Receptor” (J Med Chem, 2015).
# The source made the active and inactive calls. The calls are words filed in the database; no cut-off is given here.
# Experiments:
# Cannabinoid receptor 1 [1] = target: T1, Cannabinoid receptor 1 (Homo sapiens, UniProt P21554); assay: Agonist activity at CB1R (unknown origin) CHO cells stably expressing Galpha16 assessed as increase in intracellular calcium level by microplate reader based assay; assay type: functional, cell-based
# Cannabinoid receptor 2 [2] = target: T2, Cannabinoid receptor 2 (Homo sapiens, UniProt P34972); assay: Agonist activity at CB2R (unknown origin) CHO cells stably expressing Galpha16 assessed as increase in intracellular calcium level by microplate reader based assay; assay type: functional, cell-based; conditions: read-out: EC50
# Cannabinoid receptor 2 [3] = target: T2, Cannabinoid receptor 2; assay: Agonist activity at CB2R (unknown origin) CHO cells stably expressing Galpha16 assessed as increase in intracellular calcium level by microplate reader based assay relative to CP55940; assay type: functional, cell-based
# CHO [4] = assay: Selectivity index, ratio of EC50 for CB1R (unknown origin) CHO cells stably expressing Galpha16 to EC50 for CB2R (unknown origin) CHO cells stably expressing Galpha16; assay type: cell-based; conditions: Homo sapiens
# Mus musculus [5] = assay: Reduction in experimental autoimmune encephalomyelitis clinical scores in C57BL/6 mouse experimental autoimmune encephalomyelitis model of multiple sclerosis at 10 mg/kg, po administered once daily starting from day 3 after immunization until end of experiment and measured on day 21 after immunization; assay type: functional, organism-based
# Mus musculus [6] = assay: Reduction in leukocyte infiltration in spinal cord of C57BL/6 mouse experimental autoimmune encephalomyelitis model of multiple sclerosis at 10 mg/kg, po administered once daily starting from day 3 after immunization until end of experiment and measured on day 21 after immunization by hematoxylin and eosin staining; assay type: functional, organism-based
# Mus musculus [7] = assay: Reduction in extensive demyelination in white matter of C57BL/6 mouse experimental autoimmune encephalomyelitis model of multiple sclerosis at 10 mg/kg, po administered once daily starting from day 3 after immunization until end of experiment and measured on day 21 after immunization by Luxol fast blue staining; assay type: functional, organism-based
# Cannabinoid receptor 1 [8] = target: T1, Cannabinoid receptor 1; assay type: functional, cell-based, CHO
# Cannabinoid receptor 2 [9] = target: T2, Cannabinoid receptor 2; assay: Antagonist activity against CB2R (unknown origin) CHO cells stably expressing Galpha16 assessed as inhibition of CP55940-induced increase in intracellular calcium level pre-treated 10 mins before CP55940 stimulation by microplate reader based assay; assay type: functional, cell-based
# Cannabinoid receptor 2 [10] = target: T2, Cannabinoid receptor 2; assay: Antagonist activity against CB2R (unknown origin) CHO cells stably expressing Galpha16 assessed as inhibition of CP55940-induced increase in intracellular calcium level pre-treated 10 mins before CP55940 stimulation by microplate reader based assay relative to […]; assay type: functional, cell-based
# CHO [11] = assay: Selectivity index, ratio of IC50 for CB1R (unknown origin) CHO cells stably expressing Galpha16 to IC50 for CB2R (unknown origin) CHO cells stably expressing Galpha16; assay type: cell-based; conditions: Homo sapiens
# T2 sequence (P34972 whole entry): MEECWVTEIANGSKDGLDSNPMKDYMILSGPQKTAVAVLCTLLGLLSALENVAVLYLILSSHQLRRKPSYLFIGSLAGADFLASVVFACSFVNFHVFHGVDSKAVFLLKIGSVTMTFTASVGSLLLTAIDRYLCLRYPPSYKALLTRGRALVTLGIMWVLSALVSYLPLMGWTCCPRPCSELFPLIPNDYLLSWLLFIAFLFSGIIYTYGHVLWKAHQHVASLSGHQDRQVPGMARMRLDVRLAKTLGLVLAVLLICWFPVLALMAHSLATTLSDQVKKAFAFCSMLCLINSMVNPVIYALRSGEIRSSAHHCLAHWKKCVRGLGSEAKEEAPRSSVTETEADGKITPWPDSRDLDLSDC
# T1 sequence (P21554 whole entry): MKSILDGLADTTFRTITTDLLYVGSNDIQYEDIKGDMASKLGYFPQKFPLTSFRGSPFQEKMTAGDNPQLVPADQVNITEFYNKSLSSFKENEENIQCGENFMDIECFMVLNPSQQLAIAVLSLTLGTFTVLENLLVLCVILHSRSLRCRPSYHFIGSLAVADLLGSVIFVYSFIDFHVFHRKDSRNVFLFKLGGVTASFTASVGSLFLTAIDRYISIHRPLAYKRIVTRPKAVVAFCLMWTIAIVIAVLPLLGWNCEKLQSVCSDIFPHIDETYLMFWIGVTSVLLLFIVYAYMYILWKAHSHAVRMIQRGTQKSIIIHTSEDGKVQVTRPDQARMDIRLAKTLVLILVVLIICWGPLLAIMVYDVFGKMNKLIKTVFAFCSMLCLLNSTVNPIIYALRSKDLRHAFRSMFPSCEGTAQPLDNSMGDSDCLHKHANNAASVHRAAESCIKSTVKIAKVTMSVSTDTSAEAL
Structure (SMILES),EC50 (Cannabinoid receptor 1 [1]),EC50 (Cannabinoid receptor 2 [2]),Emax (Cannabinoid receptor 2 [3]),Ratio EC50 (CHO [4]),inhibition (Mus musculus [5]),inhibition (Mus musculus [6]),inhibition (Mus musculus [7]),IC50 (Cannabinoid receptor 1 [8]),IC50 (Cannabinoid receptor 2 [9]),Emax (Cannabinoid receptor 2 [10]),Ratio IC50 (CHO [11])
CCCCN1C(=O)/C(=C/NC2CCCCC2)C(=O)c2cccc(C)c21,> 10000 nM,92.7 nM,116%,> 108,Dose-dependent effect,Active,Active,,,,
CCCCCN1C(=O)/C(=C/NC23CC4CC(CC(C4)C2)C3)C(=O)c2cc(OC)ccc21,,,,,,,,> 10000 nM,81.7 nM,106%,> 122
